# Measurements reported in article PMC12627232 (MedComm, 2025).
# Experiments:
# B16F10 syngeneic model = test: B16F10 syngeneic model; assay type: in vivo; conditions: C57BL/6J mice, HDAC inhibitors by oral gavage, anti-PD-L1 intraperitoneal, 7-day treatment
# Experimental: With the approval of the ethics committee of Shandong University, C57BL/6J mice were purchased from Charles River and fed in SPF conditions at the Model Animal Research Centre of Shandong University. To establish the B16F10 syngeneic model, cells in logarithmic growth phase were trypsinized with 0.25% trypsin, resuspended in sterile PBS, and adjusted to 1 × 10^6 cells/100 µL. The cell suspension (100 µL) was subcutaneously injected into the left axilla. When tumors reached to certain volume, mice were randomized (n = 5/group) and treated with Chidamide, LBH‐589, or SDFZ‐8 by oral gavage and intraperitoneal injection of anti‐PD‐L1. Tumor growth curves were plotted over a 7‐day treatment cycle. All procedures complied with AAALAC International guidelines for humane endpoint criteria.
# HDAC3/NCOR1 complex = test: HDACs enzymatic assay HDAC3; assay type: biochemical; conditions: Class I; mean ± SD of three
# Experimental: HDACs enzymatic assays were conducted according to our previous work. […] Substrates (Boc‐Lys(acetyl)‐AMC for HeLa nuclear extract, Ac‐Leu‐Gly‐Lys (Tfa)‐AMC for HDAC4, HDAC5, HDAC6, HDAC7, HDAC9, HDAC10, and HDAC11, Boc‐Lys(triflouroacetyl)‐AMC for HDAC8 and Ac‐Leu‐Gly‐Lys(acetyl)‐AMC for HDAC1, HDAC2, HDAC3) were added to the mixture. The blank group was set to no enzyme or drug but contains substrates and the control group was set to no drug but contains substrates and enzymes to each 96‐well plate. After 30 min of incubation at 37°C, the mixture was terminated with 1 mg/mL trypsin and 3 µM TSA. After another 30 min, the fluorescence intensity was measured using a Varioskan plate reader at 360/460 nm. […] The inhibition curves and IC50 values were simulated and calculated using the log(inhibitor) versus response (three parameters) mode in GraphPad Prism software.
# MDA-MB-231 xenograft = MDA-MB-231 xenograft model; assay type: in vivo, BALB/c-nu mice; conditions: MDA-MB-231 xenograft, BALB/c-nu mice, 60 mg/kg/day oral gavage, 22 days
# Experimental: BALB/c‐nu mice were obtained from Pengyue Co. Ltd. (Jinan, China) and were fed in laminar flow cabinets under specific pathogen‐free (SPF) conditions. With the approval of ethics committee of Shandong University, the animal experiments were conducted. To establish the MDA‐MB‐231 xenograft model, BALB/c‐nu mice (3–4 weeks old and 15–18 g body weight, male) were selected and injected subcutaneously into the armpits with 1.2 × 10^7 MDA‐MB‐231 cells. […] Body weight and tumor size were measured every 3 days during the 22‐day treatment.
# MC38 syngeneic model = test: MC38 syngeneic model; assay type: in vivo; conditions: C57BL/6J mice, SDFZ-8 60 mg/kg qd i.g., 14-day treatment
# Experimental: C57BL/6J mice were obtained from HFK Bioscience (Beijing, China) and fed in laminar flow cabinets under SPF conditions. With the approval of the ethics committee of Shandong University, the animal experiments were conducted. […]. By the time tumors reached certain volumes, SDFZ‐8 treatment (SDFZ‐8 in PBS solution containing 5% DMSO, 60 mg/kg, qd, i.g.) was started, with five animals per treatment group. Body weight and tumor size were measured every day during the 14‐day treatment.
# MDA-MB-231 cells = test: Western blotting (immunoblotting); assay type: cell-based, human; conditions: 24 h, western blotting
# Excerpt: Anti‐H3 (#13998), anticleaved Caspase‐3 (#9661) and anti‐PARP (#9542) antibody was purchased from Cell Signal Technology (CST). Anti‐Caspase‐3 (T40044) was brought from Abmart. Antitubulin antibody (ab179484) was obtained from Abcam PLC. Anti‐Bcl‐2 (F0125) and anti‐Bax (F0037) antibody were purchased from Selleck Chemicals. Anti‐GAPDH antibody (AF1186) was obtained from Beyotime Inc. The protocol of Western blotting was the same as our previous works. In brief, 2.5 × 10^5 MDA‐MB‐231 cells were treated with different drugs or DMSO (equal volume to experimental groups) for 24 h and lysed with modified RIPA buffer. The cell lysates were added to loading buffer (Beyotime #P0015L) and heated in boiling water for 5 mins and then, together with biomarker (Epizymebiotech; 15–250 kDa), were electrophoresed in SDS‐PAGE gels under 80 V voltage until the biomarker reached the end of gels. Next, SDS‐PAGE gels and PVDF membrane were clipped together to perform transmembrane procedure under 350 mA currency for 1 h. Then after incubation with 5% skim milk, TBST, primary antibody and secondary antibody, the PVDF membrane was treated with ECL chemiluminescence solution (Boster Biological Technology #AR1174) and imaged by the imager (Imager 680 Amersham Imager).
# [1] = system: immune cells of MC38 syngeneic model; test: Flow cytometry of tumor-infiltrating and spleen immune cells, MC38 model; assay type: in vivo, C57BL/6J mice
# Experimental: After 14 days, the tumors and spleens were split, and cells were isolated to analyze the change in cancer immunity. For TILs, the tumors were incubated with the tumor digestion fluid (collagenase and hyaluronic acid included) and then filtered with a 200‐gauge mesh and centrifuged (100×g, 1 min). The supernatant was centrifuged (400×g, 5 min) and precipitated cells were purified by 40% percoll solution followed by RBC lysis and washing. For splenocytes, the spleen was passed through a 200‐gauge mesh, and splenocytes were collected after RBC lysis and washing.
# The prepared cell suspensions were incubated with rat serum at room temperature for 30 min to block the FC‐receptor and incubated with fluorescent antibodies at 4°C for 1 h. For Foxp3 staining, Foxp3/Transcription Factor Staining Buffer Set (eBioscience; #00‐5523‐00) was used. For intracellular cytokines staining, cells were pre‐stimulated with 1 µg/mL ionomycin (Beyotime; #S1672), 50 ng/mL PMA (Sigma; #P1585) and Brefeldin A (BioLegend; #420601) for 4 h. Flow cytometry was conducted with FACS Celesta (BD Biosciences, USA) and analyzed with FlowJo software.
molecule,measurement,setting,value
"Nc1cc(F)ccc1NC(=O)c1ccc(CNC(=O)/C=C/c2cccnc2)cc1 [Chidamide, reference compound]",TGI,B16F10 syngeneic model,58%
"Cc1[nH]c2ccccc2c1CCNCc1ccc(/C=C/C(=O)NO)cc1 [LBH-589, reference compound]",TGI,B16F10 syngeneic model,53%
"O=C(CCCCCCC(=O)Nc1ccccc1)NO [SAHA, Vorinostat, reference compound]",IC50,HDAC3/NCOR1 complex,45 ± 20 nM
same,TGI,MDA-MB-231 xenograft,60%
same,TGI,MC38 syngeneic model,50%
same,level of acetylated histone H3 (Ac-H3),MDA-MB-231 cells,upregulation
same,level of acetylated tubulin (Ac-tubulin),MDA-MB-231 cells,upregulation
same,PD-L1 and PD-1 expression in tumor-infiltrating immune cells,[1],upregulated
same,surface expression of MHC class II in DCs and macrophages,[1],only impacted MHC II in DCs
same,M2 polarization of TAMs,[1]; CD206 marker,suppressed
same,M1 polarization of TAMs,[1]; iNOS marker,robustly promoted
same,PD-1 expression in spleen CD4+ T cells and NK cells,[1]; spleen,downregulated
same,PD-L1 expression in spleen DCs and macrophages,[1]; spleen,upregulated
same,"proportion of CD4+ T cells, CD8+ T cells and NK cells in the spleen",[1]; spleen,did not induce such effects
same,expression of IFN-γ and TNF-α in CD4+ T cells and CD8+ T cells,[1]; tumor,upregulation
atezolizumab [anti-PD-L1],TGI,B16F10 syngeneic model,62%
